# Results published in patent US5736528A, “N^6 -(epoxynorborn-2-yl) adenosines as A1 adenosine receptor agonists” (priority 1995, dated 1998).
# Read-outs that look alike come from different tables or passages of the source.
# What was measured:
# A1 adenosine receptor [1] = target: A1 adenosine receptor (Homo sapiens, UniProt P30542); assay: A1 adenosine receptor agonist potency and selectivity (summary); details: racemic isomers
# A1-adenosine receptor [2] = target: T1, A1-adenosine receptor (Mesocricetus auratus, UniProt A0A1U8BVR4); details: EC50, text to Table 8, DDT cells
# T1 sequence (A0A1U8BVR4 1-326): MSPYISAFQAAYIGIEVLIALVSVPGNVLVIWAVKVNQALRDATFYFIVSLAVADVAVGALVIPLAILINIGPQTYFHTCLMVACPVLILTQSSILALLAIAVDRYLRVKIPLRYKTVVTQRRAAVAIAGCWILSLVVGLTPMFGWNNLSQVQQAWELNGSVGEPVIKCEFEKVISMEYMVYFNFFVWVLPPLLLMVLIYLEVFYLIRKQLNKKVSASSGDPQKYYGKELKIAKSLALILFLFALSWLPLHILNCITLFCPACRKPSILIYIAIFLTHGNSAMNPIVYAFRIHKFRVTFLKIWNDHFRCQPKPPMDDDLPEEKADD
# Procedure: (§2) The agonist compounds were tested for their potency to inhibit (-)isoproterenol stimulated cAMP accumulation in DDT1 MF-2 (DDT) cells. This effect is mediated through the action of the A1 -adenosine receptor (A1 AR).
# (§3) Cells were seeded at 0.2-1.0×10^4 cells/cm^2 and subcultured twice weekly after detachment using divalent cation-free phosphate-buffered saline containing 1 mM ethylenediamine tetraacetic acid (EDTA). Experiments were performed on cells that were grown to 1 day preconfluent.
# (§4) The potency of the A1 AR agonists was determined by their ability to inhibit (-)isoproterenol-stimulated cAMP accumulation. […] After cooling to room temperature, the tubes were centrifuged for 2 minutes at 10,000 g, and supernatants were saved.
# (§5) Briefly, an aliquot of the supernatant (50 μL) was incubated in a volume of 0.2 mL containing 25 mM Tris-HCl buffer (pH 7.0), 8 mM theophylline, 0.8 pmol [^3 H]cAMP (31.4 Ci/mmol, New England Nuclear) and 20 μg of bovine heart cAMP dependent protein kinase (Sigma Chemical Co.) at 4° C. for 1 hour. At the end of the incubation, 75 μl of a 50% (v/v) hydroxyapatite-water suspension was added to each tube followed by 4 ml of ice-cold 10 mM Tris-HCl buffer (pH 7.0). The suspension was then poured onto a Whatman GF/B glass fiber filter under reduced pressure, the filter was washed with a further 6 ml of ice-cold buffer, placed in a scintillation vial with 4 mL of Liquiscint (National Diagnostics), and the radioactivity determined in a liquid scintillation counter. The amount of cAMP in the samples was calculated from a standard curve using known concentrations of unlabeled cAMP.
# A1-adenosine receptor [3] = details: 1 μM (-)isoproterenol
# Procedure: as §2, §3, §4, §5
# A1-adenosine receptor [4] = details: 1 μM alone; 10 min
# Procedure: as §2, §3, §4, §5
# A1 receptor [5] = target: T2, A1 receptor (Cavia porcellus, UniProt P47745); assay: A1 receptor binding with [3H]CPX in brain membranes (Table 4); set-up: species or system guinea pig
# T2 construct: isolated perfused guinea pig heart; from tissue; host or cells: isolated perfused guinea pig heart
# T2 sequence (P47745 1-326): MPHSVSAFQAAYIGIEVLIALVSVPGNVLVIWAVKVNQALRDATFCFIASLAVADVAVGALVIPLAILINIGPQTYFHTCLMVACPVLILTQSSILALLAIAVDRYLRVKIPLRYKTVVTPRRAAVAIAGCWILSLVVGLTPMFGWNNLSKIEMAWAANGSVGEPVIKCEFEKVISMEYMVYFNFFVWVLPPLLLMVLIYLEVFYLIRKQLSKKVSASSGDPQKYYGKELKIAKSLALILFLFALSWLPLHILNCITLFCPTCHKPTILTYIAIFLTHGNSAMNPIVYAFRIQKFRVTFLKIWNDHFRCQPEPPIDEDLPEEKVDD
# Source text: Radioligand binding studies.
# (§6) Values are mean ± SEM of triplicate determinations in each
# of several (n) preparations.
# rats = assay: Cumulative urine output (diuretic activity) in rats; assay type: in vivo, rat
# A2 receptor [6] = target: T3, A2 receptor (Rattus norvegicus, UniProt P30543); assay: A2 receptor binding with [3H]NECA in PC12 cell membranes; details: mean ± SEM (n), read-out: Ki, PC-12
# T3 construct: endogenous in cells; host or cells: PC12 cell membranes
# T3 sequence (P30543 whole entry): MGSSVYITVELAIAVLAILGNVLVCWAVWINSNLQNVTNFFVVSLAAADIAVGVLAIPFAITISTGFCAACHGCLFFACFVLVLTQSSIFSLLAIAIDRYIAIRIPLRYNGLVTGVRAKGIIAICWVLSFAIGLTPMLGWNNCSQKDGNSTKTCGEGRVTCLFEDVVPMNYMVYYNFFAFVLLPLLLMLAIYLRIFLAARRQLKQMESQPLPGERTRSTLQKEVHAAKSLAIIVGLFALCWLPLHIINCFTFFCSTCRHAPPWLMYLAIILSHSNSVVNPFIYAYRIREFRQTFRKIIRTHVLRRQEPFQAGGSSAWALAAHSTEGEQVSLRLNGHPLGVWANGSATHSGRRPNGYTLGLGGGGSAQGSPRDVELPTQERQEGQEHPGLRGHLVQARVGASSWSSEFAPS
# Procedure: Radioligand binding studies.
# A2 receptor binding was carried out with [^3 H]NECA in PC12 cell
# membranes. Values are mean ± SEM of triplicate determinations in each
# of several (n) preparations.
# [7] = system: guinea pig tracheal muscle; assay: Relaxation of tracheal muscle
# Source text: (§1) However, that can be useful in treating conditions that indicate short-acting treatments.
# [8] = target: T4, rat brain adenosine A2 receptors (Rattus norvegicus, UniProt P30543); assay: Antagonism of radioligand binding to rat brain adenosine A2 receptors
# T4 construct: rat brain adenosine A1 and A2 receptors; from tissue; host or cells: rat brain
# T4 sequence (P30543 whole entry): as above
# Source text: (§7) rat brain adenosine A1 and A2 receptors ("IC50 "* values)
# (§8) *"IC50 " refers to the concentration at which radioligand binding to
# receptors was 50% inhibited.
# A1 receptor [9] = target: T2, A1 receptor; assay: S-H interval prolongation by adenosine in isolated heart, antagonism by ENX; set-up: species or system guinea pig
# Source text: The height of each bar graph presents the mean±SEM of 4 experiments.
# A2 receptor [10] = target: T5, A2 receptor (Cavia porcellus, UniProt P46616); assay: Antagonism of A2 receptor-mediated coronary vasodilation (coronary conductance) caused by adenosine, isolated perfused heart; set-up: species or system guinea pig
# T5 construct: isolated perfused guinea pig heart; from tissue; host or cells: isolated perfused guinea pig heart (coronary circulation)
# T5 sequence (P46616 whole entry, the tested form may be a part): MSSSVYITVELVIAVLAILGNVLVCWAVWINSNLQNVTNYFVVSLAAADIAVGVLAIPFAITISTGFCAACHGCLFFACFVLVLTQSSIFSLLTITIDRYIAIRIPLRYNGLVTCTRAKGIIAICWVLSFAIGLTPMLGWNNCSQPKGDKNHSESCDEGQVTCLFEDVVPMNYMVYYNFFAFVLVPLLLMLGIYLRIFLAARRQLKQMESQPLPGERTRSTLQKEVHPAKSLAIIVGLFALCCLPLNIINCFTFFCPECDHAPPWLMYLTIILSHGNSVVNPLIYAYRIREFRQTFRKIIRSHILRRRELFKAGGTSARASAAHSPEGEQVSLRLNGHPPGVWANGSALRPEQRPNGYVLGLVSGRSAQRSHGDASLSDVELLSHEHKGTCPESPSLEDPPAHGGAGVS
# Source text: The values are the mean±SEM from five guinea pig hearts.
# of a maximum coronary vasodilation caused by adenosine. Values in
# A1 receptor [11] = target: T2, A1 receptor; assay: Antagonism of A1 receptor-mediated negative dromotropic effect (S-H interval prolongation) of CCPA, Schild analysis, isolated perfused heart; set-up: species or system guinea pig; details: for Slope of Schild plot: mean ± S.E.M.
# Source text: Potency of various alkylxanthines to antagonize A1
# cardiac response: results of Schild analysis.
# Cardiac response: antagonism of the negative dromotropic effect of the
# selective A1 agonist CCPA.
# phosphodiesterase = assay: Phosphodiesterase activity in homogenates of DDT1 MF-2 cells; assay type: biochemical; details: DDT1 MF-2 homogenate, 45 min, 30° C.
# Procedure: Cells were homogenized in 40 mM Tris buffer at pH 8.0, and the whole homogenate was used in the enzyme assays. PDE activity was determined by incubating homogenate (0.4 mg protein) in Tris buffer containing 20 mM MgCl2, 4 mM mercaptoethanol, 0.06 mg bovine serum albumin, 0.4 mM cAMP 130 nCi of [^3 H]cAMP and the indicated concentrations of ENX or IBMX for 45 min at 30° C. Blank incubations were carried out in parallel assays without the homogenate. At the end of the incubation, the suspensions were incubated in a boiling water bath for 2 minutes, transferred to an ice-water bath for 2 minutes and 0.1 mg of snake venom phosphodiesterase was added. The suspensions were incubated for 10 minutes at 30° C., and the adenosine formed was isolated by ion exchange chromatography. […] The amount of adenosine formed was linear over the incubation period used.
# A1 adenosine receptor [12] = target: A1 adenosine receptor (Cavia porcellus, UniProt P47745); assay: A1 receptor binding with [3H]CPX in forebrain membranes (Table 5); set-up: guinea pig forebrain (A1 receptor); from tissue; host or cells: guinea pig forebrain membranes; species or system guinea pig
# Source text: (§9) Values are mean ± S.E.M. of triplicate determinations in
# each of four preparations.
# A1 receptor [13] = target: T6, A1 receptor (Mesocricetus auratus, UniProt A0A1U8BVR4); assay: A1 receptor binding with [3H]CPX in intact DDT1 MF2 cells
# T6 sequence (A0A1U8BVR4 1-326): T1 sequence (A0A1U8BVR4 1-326)
# Source text: Radioligand binding studies.
# as §6
# of several (n) preparations.
# [14] = target: T7, rat brain adenosine A1 receptors (Rattus norvegicus, UniProt P25099); assay: Antagonism of radioligand binding to rat brain adenosine A1 receptors
# T7 construct: rat brain A1 adenosine receptors; from tissue; host or cells: rat brain
# T7 sequence (P25099 1-326): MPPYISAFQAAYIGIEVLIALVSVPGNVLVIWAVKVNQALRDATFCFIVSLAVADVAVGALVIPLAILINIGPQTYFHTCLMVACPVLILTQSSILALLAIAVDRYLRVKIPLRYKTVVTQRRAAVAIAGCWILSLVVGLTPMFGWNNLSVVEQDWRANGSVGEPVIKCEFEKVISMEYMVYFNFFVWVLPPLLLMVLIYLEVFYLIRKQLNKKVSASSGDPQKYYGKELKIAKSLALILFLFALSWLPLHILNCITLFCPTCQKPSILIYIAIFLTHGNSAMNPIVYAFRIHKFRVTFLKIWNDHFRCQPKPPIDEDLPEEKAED
# Source text: as §7, §8
# receptors was 50% inhibited.
# guinea pig hearts = assay: Left ventricular pressure and dP/dt (inotropic effect) in isolated hearts
# Source text: Identical results were obtained in three other hearts.
# [15] = system: negative dromotropic effect of carbachol or MgCl2; assay: Specificity: negative dromotropic effect of carbachol or MgCl2 in isolated heart; set-up: species or system guinea pig; details: ENX 2 nM, 2 μM
# Source text: The height of each bar graph presents the mean±SEM of 4 experiments. Only the S--H interval prolongation caused by adenosine was antagonized by ENX.
# A2 adenosine receptor = target: T8, A2 adenosine receptor (Cavia porcellus, UniProt P46616); assay: A2 receptor binding with [3H]CGS 21,860 in striatum membranes (Table 5); set-up: species or system guinea pig; details: mean ± S.E.M., read-out: K1, A2 (striatum)
# T8 construct: from tissue; host or cells: guinea pig striatum membranes
# T8 sequence (P46616 whole entry): as the sequence (P46616 whole entry, the tested form may be a part) above
# Source text: as §9
# each of four preparations.
# A1 adenosine receptor [16] = target: T9, A1 adenosine receptor (Rattus norvegicus, UniProt P25099); assay: Biological activity and duration of action of ENX enantiomers; assay type: in vivo; details: for duration of action: S- vs R-enantiomer
# T9 construct: from tissue; host or cells: whole animal
# T9 sequence (P25099 1-326): T7 sequence (P25099 1-326)
# [17] = system: serum cholesterol and heparin precipitating β-lipoproteins; assay: Serum cholesterol and heparin precipitating β-lipoproteins in mice; assay type: in vivo; details: 100 mg/kg per os
# [18] = target: T10, rat brain A1 adenosine receptors (Rattus norvegicus, UniProt P25099); assay: Equilibrium dissociation constants for rat brain A1 adenosine receptors; assay type: binding; details: Table 6
# T10 construct: rat brain A1 adenosine receptors; from tissue; host or cells: rat brain
# hydrated rat = assay: Saluretic/kaluretic activity in hydrated rat; assay type: in vivo; details: 30 mg/kg per os
# Source text: as §1
# [19] = Metabolism of ENX enantiomer; assay type: in vitro ADME
# [20] = system: paroxysmal supraventricular tachycardia (PSVT); details: in vivo; cited from earlier work
# A1 adenosine receptor (Homo sapiens, UniProt P30542), sequence (P30542 whole entry): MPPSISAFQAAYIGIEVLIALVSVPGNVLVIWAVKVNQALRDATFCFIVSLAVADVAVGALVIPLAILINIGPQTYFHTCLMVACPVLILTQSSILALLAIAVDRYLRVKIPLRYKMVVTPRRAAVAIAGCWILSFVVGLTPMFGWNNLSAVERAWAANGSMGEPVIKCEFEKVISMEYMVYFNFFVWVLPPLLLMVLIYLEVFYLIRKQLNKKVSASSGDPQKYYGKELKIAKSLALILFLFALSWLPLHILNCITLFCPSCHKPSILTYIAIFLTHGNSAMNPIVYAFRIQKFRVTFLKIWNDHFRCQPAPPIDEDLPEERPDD
structure (smiles),measurement,setting,value
"OC[C@H]1O[C@@H](n2cnc3c(N[C@H]4C[C@@H]5C[C@H]4[C@H]4O[C@@H]54)ncnc32)[C@H](O)[C@@H]1O (relative stereo) [N^6-(endo-5,6-epoxynorborn-2-yl) adenosine]",A1 agonist potency and selectivity,A1 adenosine receptor [1],potent and highly selective agonists
same,EC50,A1-adenosine receptor [2],1 to 2 nM
"CC(C)NC[C@H](O)c1ccc(O)c(O)c1 [(-)Isoproterenol, reference compound]",stimulated cAMP accumulated,A1-adenosine receptor [3],458 ± 41 pmol cAMP formed per 10 minutes
same,cAMP accumulation increase above basal level,A1-adenosine receptor [4],57 fold
"CCCn1c(=O)c2[nH]c(C3CC4CC3C3OC43)nc2n(CCC)c1=O (racemic) [ENX, 1,3-dipropyl-8-{3-oxatricyclo[3.1.2.0^2,4]oct-6(7)-yl}-xanthine]",Ki,A1 receptor [5],0.45 ± 0.22 nM
same,diuretic potency compared with furosemide (Lasix),"rats; rat, in vivo",at least as high as the potency of furosemide
same,Ki,A2 receptor [6],11700 nM
same,tracheal smooth muscle relaxation / bronchodilation,[7],relax tracheal smooth muscle
same,IC50,[8],2100 nM
same,antagonism of S-H prolongation caused by adenosine,"A1 receptor [9]; ENX 2 nM, 2 μM, adenosine 4 μM",did antagonize
same,effect on S-H interval prolongation caused by adenosine,A1 receptor [9]; ENX 0.4 μM with adenosine 4 μM,completely inhibited
same,IC50 for A2 receptor-mediated coronary vasodilation,A2 receptor [10],no effect
same,inhibition at 50 µM,A2 receptor [10]; read-out: inhibition of coronary vasodilation,0%
same,Kb,A1 receptor [11],3.6 nM
same,Slope of Schild plot,A1 receptor [11],-0.91 ± 0.06
same,phosphodiesterase inhibition,phosphodiesterase,does not inhibit phosphodiesterase
same,Ki,A1 adenosine receptor [12],0.45 ± 0.13 nM
same,Ki,A1 receptor [13],0.22 ± 0.03 nM
same,IC50,[14],1.65 nM
same,"stimulus-to-His bundle interval, ENX alone","guinea pig hearts; ENX alone, up to 200 μM",no significant changes
same,LVP or dP/dt,"guinea pig hearts; normoxic hearts, ENX 2-200 μM",no significant changes
same,antagonism of negative dromotropic effect of carbachol or MgCl2,[15],did not antagonize
same,Ki,A2 adenosine receptor,360 ± 36 nM
CCCn1c(=O)c2[nH]c([C@H]3C[C@@H]4C[C@H]3[C@H]3O[C@@H]43)nc2n(CCC)c1=O [S-ENX],diuretic activity (cumulative urine output),"rats; 0.1 mg/kg i.v., 2 hours, rats",more potent than the R-enantiomer of ENX or a racemic mixture of R-and S-enantiomers of ENX
same,tracheal smooth muscle relaxation / bronchodilation,[7],bronchodilators
same,relaxation of constricted tracheal muscle,"[7]; guinea pig, 100 mg/kg per os",relaxed constricted guinea pig tracheal muscle
same,IC50,[8],9000 nM
same,duration of action,A1 adenosine receptor [16]; listed as S-enantiomer,longer duration of action than the R-enantiomer
same,duration of action,A1 adenosine receptor [16]; listed as S-enantiomer of ENX,longer
same,share of the biological activity of racemic ENX,A1 adenosine receptor [16]; in vivo,80-90%
same,serum cholesterol and heparin precipitating β-lipoproteins,[17],reduced serum cholesterol and heparin precipitating β-lipoproteins
same,Ki,[18],0.98 nM
same,IC50,[14],1.15 nM
same,kaluretic activity,hydrated rat,Moderate kaluretic activity
"CCCn1c(=O)c2[nH]c(C3CCCC3)nc2n(CCC)c1=O [CPX, 8-cyclopentyl-1,3-dipropylxanthine]",Slope of Schild plot,A1 receptor [11],-0.81 ± 0.03
same,Ki,A1 receptor [13],0.13 ± 0.01 nM
"CCCn1c(=O)c2[nH]c(C34CC5CC(CC3C5)C4)nc2n(CCC)c1=O [NAX, 1,3dipropyl-8-(3-noradamantyl)xanthine]",Ki,"A1 receptor [5]; read-out: Ki, Brain",3.8 ± 0.21 nM
same,IC50,A2 receptor [10],7100 nM
same,Kb,"A1 receptor [11]; Schild analysis, numbers in parentheses are minimum and maximum KB values, read-out: KB, equilibrium dissociation constant",1.6 nM
same,Slope of Schild plot,A1 receptor [11],-0.89 ± 0.11
same,Ki,"A1 receptor [13]; read-out: Ki, DDT1 MF2",0.18 ± 0.05 nM
same,Ki,A2 adenosine receptor,22 ± 6.9 nM
"OC[C@H]1O[C@@H](n2cnc3c(NC4CCCC4)ncnc32)[C@H](O)[C@@H]1O [CPA, N^6 -cyclopentyladenosine, reference compound]",EC50,A1-adenosine receptor [2],1 to 2 nM
"[O-][n+]1cnc2c(ncn2[C@@H]2O[C@H](CO)[C@@H](O)[C@H]2O)c1N[C@@H]1C[C@@H]2C[C@H]1[C@H]1O[C@@H]21 (relative stereo) [N^6-(exo-5,6-epoxynorborn-2-yl) adenosine-1-oxide]",EC50,A1-adenosine receptor [2],403 nM
CCCn1c(=O)c2[nH]c([C@@H]3C[C@H]4C[C@@H]3[C@@H]3O[C@H]43)nc2n(CCC)c1=O [R-ENX],tracheal smooth muscle relaxation / bronchodilation,[7],bronchodilators
same,relaxation of spontaneous tone in trachea,[7]; guinea pig trachea,induce relaxation of spontaneous tone
same,IC50,[8],2600 nM
same,metabolism,[19],rapidly degraded or metabolized
same,duration of action,A1 adenosine receptor [16],very short duration of action as compared to the S-enantiomer
same,Ki,[18],2.1 nM
same,IC50,[14],2.7 nM
"Cn1c(=O)c2[nH]c(C3CCCC3)nc2n(C)c1=O [CPT, 8cyclopentyl-1,3-dimethylxanthine]",Ki,"A1 receptor [5]; read-out: Ki, Brain",41 ± 13 nM
Nc1ncnc2c1ncn2[C@@H]1O[C@H](CO)[C@@H](O)[C@H]1O [Adenosine],effectiveness in terminating PSVT,[20],> 90%
"OC[C@H]1O[C@@H](n2cnc3c(N[C@@H]4C[C@@H]5C[C@H]4[C@H]4O[C@@H]54)ncnc32)[C@H](O)[C@@H]1O (relative stereo) [N^6-(exo-5,6-epoxynorborn-2-yl) adenosine]",A1 agonist potency and selectivity,A1 adenosine receptor [1],potent and highly selective agonists
same,EC50,A1-adenosine receptor [2],1 to 2 nM
"CC(C)Cn1c(=O)n(C)c(=O)c2[nH]cnc21 [IBMX, isobutylmethylxanthine, reference compound]",phosphodiesterase inhibition,phosphodiesterase,inhibits phosphodiesterase
